Among the data in a melting point compilation (Tetko et al.; mined from patent text by program, amines drawn as free bases though some values may be those of a salt) are melting point values, retold here.

`Nc1c(-c2cc(Cl)ccc2O)c2cc([N+](=O)[O-])ccc2[nH]c1=O`: the melting point was 344 to 347 °C.

Take `Clc1nc(Cl)nc(NNc2nc(Cl)nc(Cl)n2)n1`: the melting point was greater than 250 °C.

Turning to `O=C(c1c(F)cccc1F)N1COCN(c2ccc(Cl)cc2)C1=O`, the melting point is 125 to 126 °C.

Consider `CCCCCCCCCCCC(=O)N(CCO)CCNCCO`, for which the melting point was found to be 94 °C.

`CC(=O)SCC(Cc1ccccc1)C(=O)Nc1cccc(C(=O)OCCBr)c1` (stereo not given) came in with a melting point of 85 to 88 °C.

Regarding `CC(C(=O)O)c1cccc(NC(=O)NCC(=O)N2[C@@H](c3cccc(F)c3F)SC[C@H]2C(=O)OC(C)(C)C)c1` (stereo not given in full), the melting point came out at 130 °C.

`CC(C)(C)C1=NN(c2ccc(C(=O)O)cc2)C(c2ccccc2Cl)C1` (stereo not given) had a melting point of 229 °C.

Compound `Nc1csc(-c2cc3c(Oc4ccc(Cl)cc4)cncc3s2)n1` returned a melting point of 168 to 170 °C.

The compound `CC1(C)CCc2[nH]cc(C(=O)O)c2C1=O` returned a melting point of 225 to 228 °C.

`CCOc1cc(C=[N+]([O-])C2CCCCC2)ccc1OC`: the melting point worked out at 114 °C.

The compound `CCCCCCCC1(CCCCCCC)c2ccccc2-c2ccc(Br)cc21` yielded a melting point of 32 °C.

The compound `CC(C)[C@H](NC(=O)/C=C/c1cccnc1)C(=O)N[C@@H](Cc1ccccc1)[C@@H](O)[C@H](O)[C@H](Cc1ccccc1)NC(=O)[C@@H](NC(=O)/C=C/c1cccnc1)C(C)C` had a melting point of 285 to 289 °C.

With `Cc1ccc(N=C=S)c(C)c1COC(=O)[C@H]1[C@@H](C=C(Cl)C(F)(F)F)C1(C)C` (relative stereo), the melting point stood at 60 °C.

Compound `Cc1nc2n(c(=O)c1CCN1CCN(c3noc4cc(F)ccc34)CC1)CCS2` showed a melting point of 193 °C.

In turn, `CC(C)C(=O)Nc1ccc2oc3c(c2c1)CCCC3` showed a melting point of 206 to 208 °C.

Consider `CS(=O)(=O)OCCCc1ccc(OCc2ccccc2)cc1`, for which the melting point was in the range of 74 to 75 °C.

The compound `CCOC(=O)CCCC(=NO)c1ccccc1` registered a melting point of 28 to 30 °C.

With `CCCCCCCCS(=O)(=O)CC(CS(=O)(=O)c1ccc(OC)cc1)C(=O)NO` (stereo not given), the melting point turned out to be 134 °C.

`Cc1cc(=O)[nH]c2cc(O)cc(O)c12` returned a melting point greater than 300 °C.

Regarding `O=C(O)c1ccc(-c2coc(-c3ccc(C(F)(F)F)cc3)n2)cc1`, the melting point was 294 to 295 °C.

In turn, `COC1OC(CO)C(O)C(NC(=O)N(C)N=O)C1O` (stereo not given) registered a melting point of 116 to 117 °C.

Regarding `CCOC(=O)C(C#N)C(=O)c1cccn1C` (stereo not given), the melting point fell in the range of 74 to 77 °C.

Turning to `CCn1cc(C(=O)O)c(=O)cc1-c1ccc(OC)c(OC)c1`, the melting point lay within 232 to 234 °C.

`Cc1nc2c(C#N)cnn2c(Cl)c1CCCl`: the melting point is 143 to 145 °C.

`Cc1csc2c(S(N)(=O)=O)c(C(N)=O)nn12` came in with a melting point greater than 270 °C.

As for `CCCNS(=O)(=O)c1c(C)cc(C)cc1C`, the melting point lay within 53 to 54 °C.

`CN1CCCC1=NCCOS(=O)(=O)Oc1c[nH]c2ccccc12`: the melting point was in the range of 154 to 158 °C.

On to `CSc1cc(C)nc(SC)c1NC(=O)CCl`, for which the melting point is 190 to 192 °C.

The compound `CCCCN(c1cccc(-c2ccnc3c([N+](=O)[O-])cnn23)c1)S(=O)(=O)c1ccccc1` registered a melting point of 159 to 160 °C.

As for `CC(C)(C)c1cc(-n2nc3ccc(Cl)cc3n2)c(O)c(C(C)(C)C)c1`, the melting point was in the range of 151 to 154 °C.

In turn, `COc1cccc(-c2ccc(C(O)C(F)(F)F)cc2)c1` (stereo not given) came in with a melting point of 108 °C.

The compound `CSc1nccc(C(=NO)C(=O)c2cccc(Br)c2)n1` gave a melting point of 156 to 158 °C.

As to `CCNC(=O)[C@@H]1C[C@H](SCc2ccc(OC)cc2)CN1`, the melting point lay within 67 to 68 °C.

On to `CCCCC(C)n1ncc(-c2ccc(S(C)(=O)=O)cc2)c(-c2ccc(F)cc2)c1=O` (stereo not given), for which the melting point lay within 79 to 80 °C.

Compound `COc1ccc2c(c1OC)C(=Cc1ccccc1)c1ccccc1-2` displayed a melting point of 210 °C.

On to `ClCCOc1cc(-c2cccs2)n[nH]1`, for which the melting point fell in the range of 134 to 138 °C.

`COc1cc2ncc(C#N)c(Nc3ccc(O)c(Cl)c3)c2cc1OC`: the melting point lay in the range of 230 to 232 °C.

As for `COC(=O)c1cc(N)c(C)c(-n2cccc2)c1`, the melting point is 112 °C.

In turn, `CC(C)(SCc1ccccc1)[C@@H]1C[C@H](CSCc2ccccc2)C(=O)N1CC(=O)O` (relative stereo) had a melting point of 117 to 118 °C.

The compound `CCOC(=O)N1CCN(c2cc3ccccc3c(=O)[nH]2)CC1` had a melting point of 191 to 192 °C.

Compound `O=C(c1ccccc1)c1ccc2nc3[nH]c(=O)[nH]c3cc2c1` gave a melting point greater than 300 °C.

As to `Cc1scc(-c2ccccc2)c1N=C1NCCN1`, the melting point lay in the range of 140 to 141 °C.

With `CCOC(=O)C(=NO)c1csc(NC(c2ccccc2)(c2ccccc2)c2ccccc2)n1`, the melting point was found to be 260 °C.

Compound `CC(C)n1nc(-c2c(-c3ccccc3)nn3ccc(NC(=O)c4ccccc4)cc23)ccc1=O` gave a melting point of 266 to 267 °C.

`O=C(Nc1ccc2c(c1)nc1n2CCC1)c1cc2cccnc2n1Cc1ccccc1` yielded a melting point of 251 to 252 °C.

`CCOC(=O)c1nc(N)sc1-c1ccccn1` showed a melting point of 186 to 187 °C.

In the case of `CC(C)(C)c1noc(-c2cnc(Cl)c(Cl)c2)n1`, the melting point lay in the range of 98 to 101 °C.

`CS(=O)(=O)c1ccc(-c2cc(N)sc2-c2ccc(F)cc2)cc1` displayed a melting point of 207 to 209 °C.

`COc1ccc(-c2ccccc2-c2ccc(S(N)(=O)=O)cc2)cc1Cl` displayed a melting point of 180 °C.

`Cc1cccc(C)c1NC(=O)N=C1CCCN1C` had a melting point of 119 to 120 °C.

Compound `Cc1nc(Sc2ncccc2CC(=O)O)sc1CC(=O)O` displayed a melting point of 172 to 174 °C.

The compound `CN1CC(c2cc[nH]n2)CC2c3cccc4[nH]cc(c34)CC21` (stereo not given) registered a melting point of 160 to 162 °C.

`C=CCNc1nc(NCC=C)nc(N(CCCCCCN(c2nc(NCC=C)nc(NCC=C)n2)C2CC(C)(C)NC(C)(C)C2)C2CC(C)(C)NC(C)(C)C2)n1` displayed a melting point of 161 to 163 °C.

`COc1cc(OC)c2cc(-c3ccccc3)c(=O)[nH]c2c1` came in with a melting point of 257 to 258 °C.

As for `COC1OC(CO)C(O)C(OC)C1O` (stereo not given), the melting point was 56 to 58 °C.

As for `Nc1c(Cl)ccc2c1NCCC2=O`, the melting point was 105 to 109 °C.

On to `COc1ccc(S(=O)(=O)C(Cc2cccnc2)(CC2CCCCC2)C(=O)NO)cc1` (stereo not given), for which the melting point lay within 57 to 60 °C.

`CCn1c(C(F)(F)F)n[nH]c1=O` returned a melting point of 54 °C.

`CCc1ccnc(C(=O)c2[nH]c3cc(Cl)ccc3c2CC(=O)O)c1Cl` came in with a melting point of 158 °C.

In turn, `CCCC1=C(C#N)C(c2ccccc2Cl)c2c(n[nH]c2C2CCCC2)N1` (stereo not given) displayed a melting point greater than 270 °C.

Turning to `O=C(/C=C/c1ccc(O)cc1Cl)CC(=O)/C=C/c1cc(O)ccc1[N+](=O)[O-]`, the melting point fell in the range of 132 to 136 °C.

Consider `CCOC(=O)C1=C(COCCNc2nc(C(C)=O)c[nH]2)NC(C)=C(C(=O)OC)C1c1cccc(Cl)c1Cl` (stereo not given), for which the melting point stood at 177 °C.

The compound `CC(=O)O[C@@]12C[C@@H](OC1=O)C(=O)[C@H](O[Si](C)(C)C(C)(C)C)C2` registered a melting point of 134 to 137 °C.

For `N#Cc1ccc(CC(NC(=O)C(Cc2ccccc2)S(=O)(=O)Nc2ccc3ccccc3c2)C(=O)N2CCCCC2)cc1` (stereo not given), the melting point stood at 210 °C.

The compound `Cc1cc(C2=NNC(C)Cc3cc4c(cc32)OCO4)ccc1[N+](=O)[O-]` (stereo not given) registered a melting point of 144 to 147 °C.

`CCOC(=O)c1ccc2c(c1)ncn2-c1cc(Cl)ccc1O` gave a melting point greater than 360 °C.

`CC(=O)OC1CCC2(C)C(=CC=C3C2CCC2(C)C(C(C)CC#CC(C)(C)OC(C)=O)=CCC32)C1` (stereo not given) yielded a melting point of 98 to 101 °C.

`c1n[nH]nc1C12CCCN(CC1)C2` (stereo not given) displayed a melting point of 70 to 75 °C.

Turning to `COC(=O)CCn1cc(-c2cccnc2)c2cc([N+](=O)[O-])ccc21`, the melting point was in the range of 123 to 125 °C.

As for `COc1ccc(C(=O)N2c3ccccc3C(N3CCSc4ccccc43)=CC2C)cc1OC` (stereo not given), the melting point lay in the range of 166 to 168 °C.

The compound `Cc1ccc2nc3cc(C)c(=O)c(Cl)c-3sc2c1` yielded a melting point of 193 to 195 °C.

Compound `O=C(C=C(c1cc(Cl)cc(Cl)c1)C(F)(F)F)c1ccc(C(=O)NC2CCCO2)cc1` (stereo not given) yielded a melting point of 140 to 146 °C.

In the case of `O=C(CC1COCCO1)NC1CCC(CCN2CCN(c3nccc4c3OCC4)CC2)CC1` (stereo not given), the melting point stood at 181 °C.

Consider `CC(C)(CCn1cnnc1)NCC(O)c1ccc(O)c(CO)c1` (stereo not given), for which the melting point lay within 125 to 127 °C.

For the compound `O=C1CCC(c2cccc(F)c2)(c2cccc(F)c2)[C@@H]2CN(C(=O)Cc3ccccc3)C[C@H]12` (racemic), the melting point is 108 °C.

For `CSc1cc(C(F)(F)F)ccc1C#N`, the melting point is 80 °C.

Compound `Sc1nnc2c3ccccc3cnn12` displayed a melting point of 270 to 280 °C.

The compound `COC(=O)C(C)c1ccc2c(c1)Cc1cc(OC)ccc1-2` (stereo not given) gave a melting point of 98.5 to 100 °C.

Regarding `COc1ccc(CN(C(=S)Nc2ccccc2)c2ccc(NNC(C)=O)cc2)cc1`, the melting point is 126 to 128 °C.

Consider `CC1(C)COc2cc(Cl)c(Cl)cc2C(O)(c2ccccn2)C1` (stereo not given), for which the melting point is 128 °C.

The compound `N[C@@H](C/C(=C\C1CCCC1)C(=O)O)C(=O)O` had a melting point of 173 to 175 °C.

The compound `O=C(Nc1ccc(Cl)cc1)c1ccc([N+](=O)[O-])cc1` came in with a melting point of 233 to 235 °C.

In the case of `CCCCCCCNc1cccc(O)c1`, the melting point was 27 to 30 °C.

In the case of `CCOC(=O)c1ccc2c(c1)C(C)(Cl)C(=S)N2` (stereo not given), the melting point fell in the range of 205 to 207 °C.

The compound `COC(=O)C1CC(C(CC(O)C(CC2CCCCC2)NC(=O)C(Cc2c[nH]cn2)NC(=O)C(Cc2ccccc2)NC(=O)OC(C)(C)C)C(C)C)OC1=O` (stereo not given) returned a melting point of 95 °C.

The compound `COc1cccc(Oc2ccccc2C(=O)O)c1` returned a melting point of 129 to 131 °C.

Take `Cc1c(C(=O)Nc2ccc(N3CCN(CCN(C)C)CC3)c(C#N)c2)cnn1-c1ccc(F)cc1`: the melting point stood at 185 °C.

The compound `CCOC(=O)C1=C(C)N2CCNC2=C(C(=O)OCC)C1c1ccco1` (stereo not given) gave a melting point of 164 °C.

The compound `CC(C)c1cc(-c2ccccc2)nc(-c2ccc(F)cc2)c1CO` had a melting point of 172 to 174 °C.

As for `Cc1cc(C(=O)O)ncc1C(c1c(F)ccc(F)c1F)S(=O)(=O)CCC(F)(F)F` (stereo not given), the melting point lay in the range of 85 to 87 °C.

The melting point is the temperature, or range, at which the solid turns liquid.
